Target: T1, TRPV1 (Homo sapiens, UniProt Q8NER1)
T1 construct: expressed in transfected cells; host or cells: HEK293T
Assay: Intermolecular BRET assay, TRPV1-Luc/YFP-CaM in HEK293T cells
Type: cell-based
Settings: TRPV1-Luc/YFP-CaM
Text: In order to generate the BRET constructs, super Yellow Fluorescent Protein 2 and Renilla Luciferase II were used to improve the brightness of the assay. They were referred as YFP and Luc for short in the rest of the manuscript. The cDNA of Luc and YFP were first cloned together using a three-piece ligation in the BamHI/XhoI site of pcDNA3.1(+) (Invitrogen, Carlsbad, Calif., USA), yielding two expression vectors pcDNA3.1 YFP-Luc where YFP was cloned in-fusion at the N-terminal of Luc, and pcDNA3.1 Luc-YFP where Luc was cloned in-fusion at the N-terminal of YFP. Both YFP and Luc were amplified by PCR from the pcDNA3-YFP-EPAC-Luc vector. Luc was cloned either at the N-terminal of YFP as a HindIII-EcoRI fragment (primers used: “Luc_HindIII_ATGN-term sense” and “Luc_no Stop_EcoRI_N-term antisense”) or at the COOH-terminal of YFP as an EcoRI-XhoI fragment (primer used: “Luc_EcoRI_ATG_C-term sense” and “Luc_XhoI_Stop_C-term antisense”). In parallel, YFP was cloned either at the N-terminal of Luc as a HindIII-EcoRI fragment (primers used: “YFP_HindIII_ATG_N-term sense” and “YFP_no Stop_EcoRI_N-term antisense”) or at the COOH-terminal of Luc as a EcoRI-XhoI fragment (primer used: “YFP_EcoRI_ATG_C-term sense” and “YFP_XhoI_Stop_C-term antisense”). The sequence joining Luc and YFP sequence encoded […] (SEQ ID NO: 18) as a linker, and contained an AgeI restriction site. The YFP-hTRPV1-Luc expression vector was obtained by subcloning the human TRPV1 cDNA from the pDONR201-hTRPV1 vector (Harvard Medical School PlasmID Repository, clone HsCD00081472) as an EcoRI PCR fragment in the EcoRI site of the vector pcDNA3.1 YFP-Luc (primer used: “hTRPV1_EcoRI_Fus_Sense” and “hTRPV1_EcoRI_Fus_antisense”). The hTRPV1-Luc expression vector was obtained by subcloning the cDNA of hTRPV1 as a HindIII-EcoRI fragment in place of the YFP in the HindIII-EcoRI site of the pcDNA3.1 YFP-Luc vector (primer used: “hTRPV1_HindIII_ATG_Sense” and “hTRPV1_EcoRI_Fus_antisense”). The Luc-hTRPV3 expression vector was obtained by subcloning the cDNA of hTRPV3 (Harvard Medical School PlasmID Repository, clone HsCD00341603) as a AgeI-XhoI fragment in place of the YFP in the AgeI-XhoI sites of the pcDNA3.1 Luc-YFP vector (primer used: “hTRPV3_AgeI_ATG_Sense” and “hTRPV3_Stop_XhoI_antisense”). The hTRPV4-Luc expression vector was obtained by subcloning the cDNA of hTRPV4 as a BamHI-AgeI fragment in place of the YFP in the BamHI-AgeI site of the pcDNA3.1 YFP-Luc vector (primer used: “hTRPV4_BamHI_ATG_Sense” and hTRPV4_AgeI_Fus_antisense”). In each case, the sequence joining the cDNA of interest and either Luc or YFP sequence encoded […] (SEQ ID NO: 18) as a linker.
The cDNA of mAmetrine (Plasmid #54660) and LssmOrange (Plasmid #37130) were obtained from AddGene plasmid repository. The cDNA of aquamarine, mAmetrine and LssmOrange were all subcloned as a HindIII-EcoRI fragment in place of the YFP in the HindIII-EcoRI site of the pcDNA3.1 YFP-Luc vector (primer used: “YFP_HindIII_ATG_N-term sense” and “YFP_no Stop_EcoRI_N-term antisense”) to yield pcDNA3.1 FP-Luc expression vectors (“FP” being any fluorescent protein between aquamarine, mAmetrine and LssmOrange). […] A similar strategy was used to obtain the FP-CaM expression vector using the pcDNA3.1 FP-Luc expression vector instead of the pcDNA3.1 YFP-Luc.
HEK293T cells were maintained in Dulbecco's modified Eagle's medium-high Glucose (DMEM) (D6429, Sigma) supplemented with 10% fetal bovine serum, 100 units mL-1 penicillin and streptomycin. Twenty-four hours before transfection, cells were seeded at a density of 500,000 cells in 6-well dishes. Transient transfections were performed using polyethylenimine (PEI, linear, Mr 25,000; catalogue number 23966 Polysciences, Inc., Warrington, Pa., USA) with a PEI:DNA ratio of 4:1. Usually, 0.1-0.25 μg of the donor constructions and 1.75-1.9 μg of the acceptors constructions were transfected for the BRET measurement.

T1 sequence (Q8NER1 whole entry): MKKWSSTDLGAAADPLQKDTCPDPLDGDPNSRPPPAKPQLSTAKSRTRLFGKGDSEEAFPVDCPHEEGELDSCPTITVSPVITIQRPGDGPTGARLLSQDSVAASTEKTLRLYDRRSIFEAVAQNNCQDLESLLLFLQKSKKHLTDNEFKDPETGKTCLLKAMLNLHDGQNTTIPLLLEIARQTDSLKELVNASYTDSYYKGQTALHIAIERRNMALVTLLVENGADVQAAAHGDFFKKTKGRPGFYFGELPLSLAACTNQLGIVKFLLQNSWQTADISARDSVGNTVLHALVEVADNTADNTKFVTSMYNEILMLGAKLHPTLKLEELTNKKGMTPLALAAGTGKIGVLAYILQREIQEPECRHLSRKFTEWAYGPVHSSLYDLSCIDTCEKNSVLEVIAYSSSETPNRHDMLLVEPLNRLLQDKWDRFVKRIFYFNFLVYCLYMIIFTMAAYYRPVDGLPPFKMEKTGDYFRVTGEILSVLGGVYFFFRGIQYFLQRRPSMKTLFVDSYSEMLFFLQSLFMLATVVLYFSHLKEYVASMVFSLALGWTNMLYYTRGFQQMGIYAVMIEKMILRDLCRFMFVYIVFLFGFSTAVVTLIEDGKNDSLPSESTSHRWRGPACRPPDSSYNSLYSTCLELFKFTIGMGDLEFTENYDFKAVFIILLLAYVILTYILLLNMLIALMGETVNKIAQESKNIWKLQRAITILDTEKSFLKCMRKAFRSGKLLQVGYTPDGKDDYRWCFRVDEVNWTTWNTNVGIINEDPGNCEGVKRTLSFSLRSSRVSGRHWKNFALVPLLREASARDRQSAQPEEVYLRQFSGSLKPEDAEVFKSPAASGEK

| Effect on CAPS-induced BRET increase (intermolecular test) | Structure (SMILES) | Change of basal BRET signal |
| --- | --- | --- |
|  | C[C@H](CCC(=O)O)C[C@H](C)C[C@H](C)C(=O)/C=C(\O)[C@H](C)C[C@H](C)C/C=C/[C@@H](C)[C@@H](O)[C@@H](C)[C@@H](O)C[C@@H]1CC[C@@](C)([C@H]2CC[C@@](C)([C@@H](C)O)O2)O1 [ionomycin] | no effect |
| abolished | CC(=O)OCOC(=O)CN(CC(=O)OCOC(C)=O)c1ccccc1OCCOc1ccccc1N(CC(=O)OCOC(C)=O)CC(=O)OCOC(C)=O [BAPTA-AM] | severely diminished |

Reference: patent publication US20190353647A1, “NOVEL REAL-TIME MULTIPLEXED, MULTI-COLOR BIOLUMINESCENCE RESONANCE ENERGY TRANSFER ASSAY, APPARATUS, AND USES THEREOF” (Universite de Bordeaux, priority 2016, published 2019)
